Values quoted from earlier work in patent publication US20230404078A1, “HERBICIDAL COMBINATIONS” (priority 2020, published 2023).

What was measured:
broadleaf weeds = conditions: Clethodim itself
wheat = conditions: in vivo

CCSC(C)CC1CC(=O)C(/C(CC)=N/OC/C=C/Cl)=C(O)C1 (stereo not drawn) [Clethodim, 2-[1-[[[(2£)-3-chloro-2-propen-l-yl]oxy]imino]propyl]-5-[2-(ethylthio)propyl]-3-hydroxy-2-cyclohexen-1-one]
efficacy against broadleaf weeds (broadleaf weeds): no efficacy

COc1cc(OC)n2nc(NS(=O)(=O)c3c(C(F)(F)F)ccnc3OC)nc2n1 [Pyroxsulam]
injury in the wheat crop (wheat): greater than 10%
visual injury in wheat (wheat): up to 10%
